Source: patent US20240092756A1, “METHODS AND COMPOSITION FOR KRAS MODIFICATIONS” (2692372 ONTARIO, INC., priority 2020, published 2024)

What was measured:
[1] = test system: phospho-ERK1/2 in MIA PaCa-2 cells (express KRAS G12C); test: ERK1/2 phosphorylation in MIA PaCa-2 cells; type: cell-based, human; set-up: key: X: KRAS G12C bound and modulated in cells
Description: MIA PaCa-2 cells were cultured in Dulbecco's Modified Eagle's Medium (Wisent) supplemented with 10% FBS, 2.5% horse serum, and 1% penicillin/streptomycin. Cells were seeded in 6-well plates at 500,000 cells/well and incubated at 37° C., 5% CO2 for 16 hours. Cells were treated with the indicated concentrations of compound or DMSO alone and incubated at 37° C., 5% CO2 for 6 or 24 hours. Conditioned media was discarded, and adherent cells were washed with PBS before they were scraped. Cell suspensions were centrifugated at 2,000 RPM for 5 minutes at 4° C. and supernatants were discarded. Cell pellets were resuspended with 1×RIPA buffer (Millipore) and incubated on ice for 15 minutes. Protein lysates were extracted by centrifugating at 20,000 RPM for 20 minutes at 4° C. Proteins were separated and total KRas protein levels were quantified by Simple Western Immunoassay (ProteinSimple) using the 2-40 kDa Separation Module for Jess according to the manufacturer's protocol, using a protein concentration of 0.5 μg/μl and antibodies targeting KRas (clone #4F3, Sigma) and GAPDH (clone #14C10, Cell Signaling) diluted to 1:10 and 1:1600, respectively, where the latter was used as a loading control. A 3:1 ratio of rabbit to mouse HRP-conjugated secondary antibodies was used for detection. KRas protein levels were quantified relative to GAPDH loading levels and subsequently normalized to the DMSO control. Phosphorylated ERK1/2 levels were quantified by Simple Western Immunoassay (ProteinSimple) using the Protein Normalization Assay Module for Jess according to the manufacturer's protocol using a protein concentration of 0.5 μg/μl and an antibody targeting phosphor-ERK1/2 (clone #D13.14.4E, Cell Signalling) diluted to 1:10. Phosphorylated ERK1/2 levels were normalized to the Jess Protein Normalization Reagent loading control and subsequently to the DMSO control.
MIA PaCa-2 cells were cultured in Dulbecco's Modified Eagle's Medium (Wisent) supplemented with 10% FBS, 2.5% horse serum, and 1% penicillin/streptomycin. Cells were seeded in 96-well plates at a density of 25,000 cells/well and incubated at 37° C., 5% CO2 for 24 hours. The next day, cells were starved in cell culture media containing 1% FBS only at 37° C., 5% CO2 for 16 hours. Following starvation, serially-diluted compounds or DMSO alone were added to cells and incubated at 37° C., 5% CO2 for 1 or 3 hours. Prior to cell lysis, 25 ng/ml human epidermal growth factor (hEGF) (Sigma) was added to the cells and incubated at 37° C., 5% CO2 for 10 minutes. Conditioned media was discarded, and adherent cells lysed and basal ERK1/2 phosphorylation levels were measured using the Phospho-ERK (Thr202/Tyr204) Cellular HTRF kit (Perkin Elmer) according to the manufacturer's protocol. The fluorescent signal of the acceptor antibody at a wavelength of 665 nm was normalized to that of the donor antibody at 620 nm. HTRF ratios were plotted and relative IC50 values were obtained using Prism (GraphPad).

[2] = biological target: KRAS G12C Lite (SEQ ID NO:3) (Homo sapiens, UniProt P01116, C118S/C51S/C80S/G12C/S136P/S39C); test: Intact mass analysis (LC-MS) of covalent modification, KRAS G12C Lite; type: binding; set-up: key to KRAS Lite Modification: a: KRAS Lite modified; conditions: for KRAS Lite Modification: intact mass spectrometry, covalent modification of KRAS G12C Lite; for covalent adduct mass, His-tagged KRAS G12C Lite: modification by one molecule of compound
Description: (§1) The covalent modification of the proteins with the compounds were evaluated using intact mass analysis by liquid chromatography-mass spectrometry instrument (LC-MS/MS).
(§2) The reaction solution (20 μL) was prepared in 96-well plate and contained the protein (2 μM), the compound (100 μM), HEPES buffer (20 mM, pH 8), 2% DMSO, 2% glycerol, and 150 mM NaCl. The reaction was allowed to proceed for 24 h at 25° C. The reaction solution (1 μL) was injected into the LC/MS/MS without any further sample preparation.
(§3) The LC-MS/MS instrument comprises of a Waters G2-XS quadrupole-time of flight (QTof) mass spectrometer and a Waters Acuity I-class Ultra-High Performance Liquid Chromatography (UPLC) system. The I-class UPLC system includes a binary solvent manager (BSM), and an Acquity sample manager (SM). The mobile phase consisted of: A) 0.1% (v/v) formic acid in MilliQ water; B) 0.1% (v/v) formic acid acetonitrile. Gradients were run over 5 min and proceeded as follows: A:B, 85:15, 0.0-0.7 min, 85:15→15:85, 0.7-1.5 min, 10:90, 1.5-4 min, 10:90→85:15, 4-4.5 min, 85:15, 4.5-5 min. The analytical column was a Waters BEH C4 column 1.7 μm (50×1 mm) column with pore sizes of 300 Å. The TOF MS data was collected in positive ion mode (m/z of 400-2000 Da) using MassLynx software (Waters).
(§4) The spectral deconvolution was performed using UNIFI software (Waters). The added mass of the protein upon covalent modification to cysteine residues were specified. Multiple modification of up to 8 cysteine was allowed. All the adducts with signal intensities of <2% of the base peak were ignored. The % modification was calculated as the adduct signal intensity over the total intensities of the protein peaks and the adducts.

[3] = biological target: T1, KRAS G12C (SEQ ID NO:1 or SEQ ID NO:2) (Homo sapiens, UniProt P01116, G12C); test: Intact mass analysis (LC-MS) of covalent modification, KRAS G12C; type: binding; set-up: key to KRAS G12C Modification: b: KRAS G12C modified; conditions: for KRAS G12C Modification: intact mass spectrometry, covalent modification of KRAS G12C FL; for covalent adduct mass, His-tagged KRAS G12C: modification by one molecule of compound
T1 construct: purchased
Description: as §1, §2, §3, §4

KRAS G12C [4] = biological target: T2, KRAS G12C (Homo sapiens, UniProt P01116, G12C); test: SOS1-catalyzed KRAS coupled nucleotide exchange assay (Alpha technology); type: biochemical; set-up: His; key: A: KRAS G12C bound and modulated; conditions: inhibition of SOS1 mediated KRAS nucleotide exchange
In short: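 Alpha readout of c-RAF RBD binding to GTP-bound KRAS, normalized to DMSO. Method I: 20 nM GDP-KRAS G12C/C118A with compound 5 min, then 1.25 mM GTP + 500 nM SOS-1 30 min, pH 7.4 HEPES/MgCl2 buffer, 50 nM RBD. Method II: 50 nM GDP-KRAS G12C with compound 2 h, 1 mM GTP + 500 nM SOS-1 30 min, 2.5 nM GST-RBD; RT throughout.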

KRAS G12C [5] = biological target: T2, KRAS G12C; test: Differential scanning fluorimetry, KRAS G12C; type: binding; set-up: purchased; key: Y: protein destabilized; N: protein not destabilized; conditions: 37° C. 5 hours incubation
Description: (§5) KRas proteins at 0.05 mg/ml in buffer Hepes, 147 mM NaCl, 2% glycerol, 5 mM MgCl2, 1 mM EDTA, 10 μM GDP, pH 8.0 were incubated in the presence desired concentration of compounds (5% DMSO final concentration) at 37° C. for 5 hours. After incubation, Sypro Oange to a final concentration of 5× was added to each sample. 20 μl aliquots of samples were transferred PCR tubes, sealed with caps, and run in a BioRad CFX96 RTPCR thermocycler. In the instrument, the samples were heated at a rate of 1° C./min from 25 to 90 degrees. Fluorescence readings were taken every 1 degree. The data generated was exported and analyzed using GraphPad-Prism software. The denaturation curves were fit using a Boltzmann sigmoidal equation to calculate melting temperatures (Tm).

KRAS G12C Lite = KRAS G12C Lite (Homo sapiens, UniProt P01116, C118S/C51S/C80S/G12C/S136P/S39C); test: Differential scanning fluorimetry, KRAS G12C Lite; type: binding; set-up: key: Y: protein destabilized; N: protein not destabilized; conditions: 37° C. 5 hours incubation
Description: as §5

| KRAS Lite Modification [2] | covalent adduct mass, His-tagged KRAS G12C Lite [2] | KRAS G12C Modification [3] | covalent adduct mass, His-tagged KRAS G12C [3] | KRAS-SOS1 Nucleotide Exchange (KRAS G12C [4]) | KRAS G12C DSF ΔTm (KRAS G12C [5]) | KRAS G12C Lite DSF ΔTm (KRAS G12C Lite) | Compound | pERK - MIA PaCa-2 - (6 hours, 5 uM) [1] |
| --- | --- | --- | --- | --- | --- | --- | --- | --- |
| a | – | b | – | A | – | – | Cc1ccnc(C(C)C)c1-n1c(=O)nc(N2CCN(S(=O)(=O)c3c(F)c(F)c(F)c(F)c3OC(F)F)C[C@@H]2C)c2cc(F)c(-c3c(O)cccc3F)nc21 (single isomer, unassigned) [Compound 17A] | X |
| a | – | b | – | A | – | – | Cc1ccnc(C(C)C)c1-n1c(=O)nc(N2CCN(S(=O)(=O)c3c(F)c(F)c(F)c(F)c3OC(F)F)C[C@@H]2C)c2cc(F)c(-c3c(O)cccc3F)nc21 (single isomer, unassigned) [Compound 18A] | X |
| a | – | b | – | – | Y | Y | Cc1ccnc(C(C)C)c1-n1c(=O)nc(N2CCN(S(=O)(=O)c3c(F)c(F)c(F)c(F)c3C(F)(F)F)C[C@@H]2C)c2cc(F)c(Cl)nc21 [Compound 11A, 7-chloro-6-fluoro-1-(2-isopropyl-4-methylpyridin-3-yl)-4-((S)-2-methyl-4-((2,3,4,5-tetrafluoro-6-(trifluoromethyl)phenyl)sulfonyl)piperazin-1-yl)pyrido[2,3-d]pyrimidin-2(1H)-one] | – |
| a | – | b | – | A | – | Y | CN1CCC[C@H]1COc1nc2c(c(N3CCN(S(=O)(=O)c4c(F)c(F)c(F)c(F)c4C(F)(F)F)CC3)n1)CCN(c1cccc3cccc(Cl)c13)C2 (stereo in doubt) [Compound 42A, (7R)-7-(8-chloro-1-naphthyl)-2-[[(1S,2S)-1-methylpyrrolidin-2-yl]methoxy]-4-[4-[2,3,4,5-tetrafluoro-6-(trifluoromethyl)phenyl]sulfonylpiperazin-1-yl]-6,8-dihydro-5H-pyrido[3,4-d]pyrimidine] | – |

Further lines, the molecule ahead of its results:

| Compound | KRAS Lite Modification [2] | covalent adduct mass, His-tagged KRAS G12C Lite [2] | KRAS G12C Modification [3] | covalent adduct mass, His-tagged KRAS G12C [3] | KRAS-SOS1 Nucleotide Exchange (KRAS G12C [4]) | KRAS G12C DSF ΔTm (KRAS G12C [5]) | KRAS G12C Lite DSF ΔTm (KRAS G12C Lite) | pERK - MIA PaCa-2 - (6 hours, 5 uM) [1] |
| --- | --- | --- | --- | --- | --- | --- | --- | --- |
| Cc1ccnc(C(C)C)c1-n1c(=O)nc(N2CCN(S(=O)(=O)c3c(F)c(F)c(F)c(F)c3F)C[C@@H]2C)c2cc(F)c(-c3c(O)cccc3F)nc21 [Compound 1A, 6-fluoro-7-(2-fluoro-6-hydroxyphenyl)-1-(2-isopropyl-4-methylpyridin-3-yl)-4-((S)-2-methyl-4-((perfluorophenyl)sulfonyl)piperazin-1-yl)pyrido[2,3-d]pyrimidin-2(1H)-one] | a | 22,179 Da | b | 22,070 Da | A | – | – | X |
| Cc1ccnc(C(C)C)c1-n1c(=O)nc(N2CCN(S(=O)(=O)c3c(F)c(F)c(F)c(F)c3OCF)C[C@@H]2C)c2cc(F)c(-c3c(O)cccc3F)nc21 [Compound 7A, 6-fluoro-7-(2-fluoro-6-hydroxyphenyl)-1-(2-isopropyl-4-methylpyridin-3-yl)-4-((S)-2-methyl-4-((2,3,4,5-tetrafluoro-6-(fluoromethoxy)phenyl)sulfonyl)piperazin-1-yl)pyrido[2,3-d]pyrimidin-2(1H)-one] | a | 22,209 Da | b | 22,100 Da | A | – | – | X |
| Cc1ccnc(C(C)C)c1-n1c(=O)nc(N2CCN(S(=O)(=O)c3c(F)c(F)c(F)c(F)c3C(F)(F)F)C[C@@H]2C)c2cc(F)c(-c3c(O)cccc3F)nc21 [Compound 6A, 6-fluoro-7-(2-fluoro-6-hydroxyphenyl)-1-(2-isopropyl-4-methylpyridin-3-yl)-4-((S)-2-methyl-4-((2,3,4,5-tetrafluoro-6-(trifluoromethyl)phenyl)sulfonyl)piperazin-1-yl)pyrido[2,3-d]pyrimidin-2(1H)-one] | a | 22,229 Da | b | 22,120 Da | A | – | – | X |
| Cc1ccnc(C(C)C)c1-n1c(=O)nc(NS(=O)(=O)c2c(F)c(F)c(F)c(F)c2F)c2cc(F)c(-c3c(O)cccc3F)nc21 [Compound 3A, 2,3,4,5,6-pentafluoro-N-(6-fluoro-7-(2-fluoro-6-hydroxyphenyl)-1-(2-isopropyl-4-methylpyridin-3-yl)-2-oxo-1,2-dihydropyrido[2,3-d]pyrimidin-4-yl)benzenesulfonamide] | a | – | b | – | A | – | – | X |
